Measured values as given in patent US6608203B2, “Tetrahydroisoquinoline compounds as estrogen agonists/antagonists” (Pfizer Inc., priority 1999, dated 2003).

Experiments:
male Sprague-Dawley rats = assay: Assay 2: Effect on Prostate Weight; assay type: in vivo, rat; conditions: subcutaneous injection daily for 14 days, compared to vehicle
Method: Three-month-old male Sprague-Dawley rats are administered by subcutaneous injection control vehicle (10% ethanol in water), estradiol (30 μg/kg), testosterone (1 mg/kg), or a test compound according to the present invention daily for 14 days (n=6/group). After 14 days the animals are sacrificed, the prostate is removed, and the wet prostate weight is determined. Mean weight is determined and statistical significance (p<0.05) is determined compared to the vehicle-treated group using the Student's t-test.

[1] = unlike estrogen; cited from earlier work
male rats [2] = conditions: cited from earlier work
male rats [3] = conditions: 200 and 400 mg/kg/day; cited from earlier work

For `C[C@]12CC[C@H]3[C@@H](CCC4=CC(=O)CC[C@@]43C)[C@@H]1CC[C@@H]2O` [Testosterone, testosterone], the “effect on wet prostate weight” value (male Sprague-Dawley rats; testosterone 1 mg/kg) was “no effect”.

With `C[C@]12CC[C@@H]3c4ccc(O)cc4CC[C@H]3[C@@H]1CC[C@@H]2O` [estrogen, estradiol] the “effect on wet prostate weight” value (male Sprague-Dawley rats; estrogen at 30 μg/kg) was “significantly reduce prostate weight”.

In the case of `O=C(c1ccc(OCCN2CCCCC2)cc1)c1c(-c2ccc(O)cc2)sc2cc(O)ccc12` [raloxifene, 6-hydroxy-2-(4-hydroxyphenyl)-3-[4-(2-piperidinoethoxy)benzoyl] benzo[b] thiophene], the uterine stimulatory effect [1] is listed as “minimal uterine stimulatory effect” and the “effect on ventral prostate” value (male rats [2]) is listed as “regression of the ventral prostate”.

For `CC/C(=C(\c1ccccc1)c1ccc(OCCN(C)C)cc1)c1ccccc1` [tamoxifen, 1-(4-β-dimethylaminoethoxyphenyl)-1,2-diphenyl-but-1-ene], the “weights of the testes and secondary sex organs” value (male rats [3]) is listed as “reduces the weights of the testes and secondary sex organs”.
